Experimental data reported in ChEMBL document CHEMBL5726789, “Substituted 6, 7-dialkoxy-3-isoquinoline derivatives as inhibitors of phosphodiesterase 10 (PDE 10A)” (2018).
pIC50: −log10 of the molar value.

Target: cAMP and cAMP-inhibited cGMP 3',5'-cyclic phosphodiesterase 10A (Homo sapiens, UniProt Q9Y233)
Test: Homogenous Time-Resolved Fluorescence Resonance Energy Transfer (TR-FRET) Technology: The phosphodiesterase assay was developed using the LANCE® cAMP kit (PerkinElmer). The assay buffer contained HBSS with 5 mM HEPES, 0.1% BSA, and 1.5 mM MgCl2, pH 7.4. PDE10A (BPS Bioscience) was used at 200 pg/well (with a specific activity of 3200 pmole/min/μg with assay conditions: 10 mM Tris-HCl, pH 7.4, 10 mM MgCl2, 1 mM MnCl2, 200 μM cAMP, 2.5 kU 5′ nucleotidase, 37° C., 20 min) and PDE4D3 (BPS Bioscience) was used at 100 pg/well (with a specific activity of 32713 pmole/min/μg with assay conditions: 10 mM Tris-HCl, pH 7.4, 10 mM MgCl2, 1 mM MnCl2, 200 μM cAMP, 2.5 kU 5′ nucleotidase, 37° C., 20 min). The Biotin-cAMP tracer, supplied in 10 mmol/L Tris-HCl buffered (pH 8.0) salt solution with 1 mmol/L ethylenediaminetetraacetic acid (EDTA), 0.1% bovine serum albumin (BSA), and 0.05% sodium azide, is used at a dilution of 1/375. The assay detection mixture contained the LANCE Eu-W8044 labeled streptavidin 1/2250 (supplied in 50 mmol/L Tris-HCl buffered (pH 7.8) salt solution with 0.9% sodium chloride (NaCl), 0.1% BSA, and 0.05% sodium azide) and the Alexa Fluor® 647-anti cAMP antibody 1/200 (supplied in 50 mmol/L Tris-HCl buffered (pH 7.8) salt solution with 0.9% NaCl, 0.1% BSA, and 0.05% sodium azide). Chemical compounds were dissolved in DMSO (final concentration 2% (v/v)).

Sequence of cAMP and cAMP-inhibited cGMP 3',5'-cyclic phosphodiesterase 10A (Q9Y233 whole entry): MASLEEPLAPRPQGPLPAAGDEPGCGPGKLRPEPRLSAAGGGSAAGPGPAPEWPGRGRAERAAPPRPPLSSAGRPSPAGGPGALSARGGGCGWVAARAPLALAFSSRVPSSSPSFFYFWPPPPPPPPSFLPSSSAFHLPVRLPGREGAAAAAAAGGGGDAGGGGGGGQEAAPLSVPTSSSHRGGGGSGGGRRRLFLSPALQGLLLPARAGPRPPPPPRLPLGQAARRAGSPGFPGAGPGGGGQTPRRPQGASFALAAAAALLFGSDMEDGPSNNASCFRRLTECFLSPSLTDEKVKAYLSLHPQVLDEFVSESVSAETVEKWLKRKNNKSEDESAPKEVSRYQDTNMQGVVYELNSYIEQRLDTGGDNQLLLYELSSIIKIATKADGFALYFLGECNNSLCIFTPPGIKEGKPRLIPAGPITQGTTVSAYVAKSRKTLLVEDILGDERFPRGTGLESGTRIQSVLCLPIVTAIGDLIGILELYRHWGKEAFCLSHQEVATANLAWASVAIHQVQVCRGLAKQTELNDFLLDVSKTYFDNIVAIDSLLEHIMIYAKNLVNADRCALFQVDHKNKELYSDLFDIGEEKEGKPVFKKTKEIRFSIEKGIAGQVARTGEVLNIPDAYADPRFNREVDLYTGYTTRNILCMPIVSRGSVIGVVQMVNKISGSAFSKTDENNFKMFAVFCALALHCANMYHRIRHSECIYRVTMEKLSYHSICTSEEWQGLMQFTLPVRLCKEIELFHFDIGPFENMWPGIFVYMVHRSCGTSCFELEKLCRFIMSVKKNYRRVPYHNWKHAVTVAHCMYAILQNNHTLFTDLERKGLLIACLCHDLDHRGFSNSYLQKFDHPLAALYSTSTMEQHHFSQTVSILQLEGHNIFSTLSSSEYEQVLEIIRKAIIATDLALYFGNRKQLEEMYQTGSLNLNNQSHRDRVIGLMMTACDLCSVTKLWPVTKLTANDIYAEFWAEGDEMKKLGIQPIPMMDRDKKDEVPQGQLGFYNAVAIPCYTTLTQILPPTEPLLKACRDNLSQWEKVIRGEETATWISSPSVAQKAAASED

| Compound | pIC50 |
| --- | --- |
| CCn1c2ccccc2c2cc(Cc3cncc4cc(OC)c(OC)cc34)ccc21 | 7.59 |
| CCCc1ncc(Cc2cc3cc(OC)ccc3nc2OCC#N)c2cc(OC)c(OC)cc12 | 6.80 |
| CCCc1ncc(Cc2ccc3cccc(OC(C)(C)C(N)=O)c3n2)c2cc(OC)c(OC)cc12 | 7.23 |
